Tests used:
recombinant BRD4 BD2 = target: T1, recombinant BRD4 BD2 (Homo sapiens, UniProt O60885); assay: Competitive fluorescence-polarization (FP) binding assay, BRD4 BD2; details: competitive FP assay; protein 6 nM, probe […]; read-out: IC50 (nM) BRD4 BD2; note: probe 1.5 nM
T1 construct: for recombinant BRD4 BD1 and BRD4 BD2 proteins
Method in brief: (§1)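 FP competition with FAM-labelled probe (ZBA248 or BRD-1F) against preincubated protein/probe complex; BD1 at 10 nM and BD2 at 6 nM final, in 100 mM potassium phosphate pH 6.5, 0.01% Triton X-100. 30 min, room temperature. IC50 by nonlinear regression; Ki also derived, using probe Kd from protein saturation.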

MDA-MB-436 = assay: Cell growth inhibition, MDA-MB-436 breast cancer cells (WST-8); format: cell-based; details: Homo sapiens, MDA-MB-436, 96 h; 4 days; read-out: IC50 (nM) MDA-MB-436 Cell Line (WST assay)
Method in brief: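 IC50 was computed from WST-8-based cell counting in MDA-MB-436 cells, with absorbance read at 450 nm.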

MOLM-13 = assay: Cell growth inhibition, MOLM-13 leukemia cells (CellTiter-Glo); format: cell-based; details: Homo sapiens, MOLM-13, 96 h; 4 days; read-out: IC50 (nM) MOLM-13 Cell Line (CellTiter-Glo assay)
Method in brief: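 MOLM-13 leukemia cells treated with compounds; viability read by CellTiter-Glo luminescence after 10-20 min reagent incubation at room temperature. IC50 derived from luminescent signal.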

recombinant BRD4 BD1 = target: T2, recombinant BRD4 BD1 (Homo sapiens, UniProt O60885); assay: Competitive fluorescence-polarization (FP) binding assay, BRD4 BD1; details: competitive FP assay; protein 10 nM, probe […]; read-out: IC50 (nM) BRD4 BD1; note: probe 1.5 nM
T2 construct: for recombinant BRD4 BD1 and BRD4 BD2 proteins
Method in brief: as §1

Compound | IC50 (recombinant BRD4 BD2) [nM] | IC50 (MDA-MB-436) [nM] | IC50 (MOLM-13) [nM] | IC50 (recombinant BRD4 BD1) [nM]
COc1cc2c(cc1-c1c(C)noc1C)[nH]c1nc(C)nc(Nc3cc(C(C)(C)C)n[nH]3)c12 [Cpd. No. 126, N-(3-(tert-Butyl)-1H-pyrazol-5-yl)-7-(3,5-dimethylisoxazol-4-yl)-6-methoxy-2-methyl-9H-pyrimido[4,5-b]indol-4-amine] | 32.8 | 140 | 65.3 | 11
COc1cc2c(cc1-c1c(C)noc1C)[nH]c1nc(C)nc(Nc3cn(C)nc3C(C)C)c12 [Cpd. No. 181, 7-(3,5-dimethylisoxazol-4-yl)-N-(3-isopropyl-1-methyl-1H-pyrazol-4-yl)-6-methoxy-2-methyl-9H-pyrimido[4,5-b]indol-4-amine] | 10.2 | 22.9 | 22.2 | 4.4
COc1cc2c(cc1-c1c(C)noc1C)[nH]c1nc(C)nc(Nc3cc(C4CCC4)nn3C)c12 [Cpd. No. 136, N-(3-Cyclobutyl-1-methyl-1H-pyrazol-5-yl)-7-(3,5-dimethylisoxazol-4-yl)-6-methoxy-2-methyl-9H-pyrimido[4,5-b]indol-4-amine] | 6.9 | 63.2 | 26.6 | 10.5
COc1cc2c(cc1-c1c(C)noc1C)[nH]c1nc(C)nc(Oc3cncc(Br)c3)c12 [Cpd. No. 105, 4-(4-(5-bromopyridin-3-yloxy)-6-methoxy-2-methyl-9H-pyrimido[4,5-b]indol-7-yl)-3,5-dimethylisoxazole] | 868 | 885 | 371 | > 1000
COc1cc2c(cc1-c1c(C)noc1C)[nH]c1nc(C)nc(Nc3c4c(nn3CCO)CCC4)c12 [Cpd. No. 150, 2-(3-((7-(3,5-Dimethylisoxazol-4-yl)-6-methoxy-2-methyl-9H-pyrimido[4,5-b]indol-4-yl)amino)-5,6-dihydrocyclopenta[c]pyrazol-2(4H)-yl)ethanol] | 7.2 | 29.8 | 7.2 | 9.6
COc1cc2c(cc1-c1c(C)noc1C)[nH]c1nc(C)nc(Nc3csc4ncccc34)c12 [Cpd. No. 103, N-(7-(3,5-dimethylisoxazol-4-yl)-6-methoxy-2-methyl-9H-pyrimido[4,5-b]indol-4-yl)thieno[2,3-b]pyridin-3-amine] | 38 | 120 | 39 | 29
COc1cc2c(cc1-c1c(C)noc1C)[nH]c1nc(C)nc(Nc3cc(C(C)(C)C)ns3)c12 [Cpd. No. 133, 3-(tert-Butyl)-N-(7-(3,5-dimethylisoxazol-4-yl)-6-methoxy-2-methyl-9H-pyrimido[4,5-b]indol-4-yl)isothiazol-5-amine] | > 1000 | 47900 | 433 | > 1000
COc1cc2c(cc1-c1c(C)noc1C)[nH]c1nc(C)nc(Nc3nnc4ccccn34)c12 [compound 101, N-([1,2,4]triazolo[4,3-a]pyridin-3-yl)-7-(3,5-dimethylisoxazol-4-yl)-6-methoxy-2-methyl-9H-pyrimido[4,5-b]indol-4-amine] | 786 | 811 | 266 | 978
COc1cc2c(cc1-c1c(C)noc1C)[nH]c1nc(C)nc(Nc3c4c(nn3C3CC3)CCC4)c12 [Cpd. No. 148, N-(2-Cyclopropyl-2,4,5,6-tetrahydrocyclopenta[c]pyrazol-3-yl)-7-(3,5-dimethylisoxazol-4-yl)-6-methoxy-2-methyl-9H-pyrimido[4,5-b]indol-4-amine] | 5 | 20.4 | 3.4 | 7.9
COc1cc2c(cc1-c1c(C)noc1C)[nH]c1nc(C)nc(Sc3nnc(C)n3C(C)C)c12 [Cpd. No. 3, 4-(4-((4-Isopropyl-5-methyl-4H-1,2,4-triazol-3-yl)thio)-6-methoxy-2-methyl-9H-pyrimido[4,5-b]indol-7-yl)-3,5-dimethylisoxazole] | 183 | 386 | 38.4 | 540

Reference: patent publication US9580430B2, “9H-pyrimido[4,5-B]indoles and related analogs as BET bromodomain inhibitors” (THE REGENTS OF THE UNIVERSITY OF MICHIGAN, priority 2014, dated 2017)
